Laboratory results reported in ChEMBL document CHEMBL5465560, “Selectivity Literature for EUbOPEN Chemogenomic Library” (2024).

Assays:
[1] = target: 5'-AMP-activated protein kinase catalytic subunit alpha-1 (Homo sapiens, UniProt Q13131); conditions: at 10 µM
[2] = target: T1, Inhibitor of nuclear factor kappa-B kinase subunit alpha (Homo sapiens) (UniProt O15111); assay: Selectivity interaction (KinomeScan (DiscoverX)) EUB0001079a CHUK; conditions: at 1 µM
T1 sequence (whole entry): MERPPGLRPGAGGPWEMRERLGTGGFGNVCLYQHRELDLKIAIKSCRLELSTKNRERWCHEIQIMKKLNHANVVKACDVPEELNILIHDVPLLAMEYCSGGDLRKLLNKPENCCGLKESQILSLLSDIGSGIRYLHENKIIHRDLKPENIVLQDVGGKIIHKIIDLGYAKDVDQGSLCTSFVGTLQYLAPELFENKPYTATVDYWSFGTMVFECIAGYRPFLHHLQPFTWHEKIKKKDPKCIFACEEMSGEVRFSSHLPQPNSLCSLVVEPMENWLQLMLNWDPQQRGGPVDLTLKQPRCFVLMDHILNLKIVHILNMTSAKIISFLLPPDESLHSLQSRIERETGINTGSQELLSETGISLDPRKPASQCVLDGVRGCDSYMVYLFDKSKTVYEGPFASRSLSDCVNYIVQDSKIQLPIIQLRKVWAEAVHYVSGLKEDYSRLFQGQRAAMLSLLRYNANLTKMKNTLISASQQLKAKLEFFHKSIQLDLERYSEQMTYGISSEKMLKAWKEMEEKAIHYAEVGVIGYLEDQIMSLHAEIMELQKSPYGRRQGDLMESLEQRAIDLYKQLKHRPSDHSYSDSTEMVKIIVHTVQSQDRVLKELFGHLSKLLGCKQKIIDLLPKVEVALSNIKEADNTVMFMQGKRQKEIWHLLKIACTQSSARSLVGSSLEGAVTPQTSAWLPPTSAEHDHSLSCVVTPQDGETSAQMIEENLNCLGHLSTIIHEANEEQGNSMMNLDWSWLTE

[3] = target: Phosphatidylinositol 4,5-bisphosphate 3-kinase catalytic subunit beta isoform (Homo sapiens) (UniProt P42338); assay: Selectivity interaction (KinomeScan (DiscoverX)) EUB0001079a PIK3CB; conditions: at 1 µM
[4] = target: Serine/threonine-protein kinase WNK1 (Homo sapiens) (UniProt Q9H4A3); assay: Selectivity interaction (Kinase panel (KiNativ target engagement assay in Jurkat cells)) EUB0001635a WNK1; format: cell-based; conditions: at 1 µM
Serine/threonine-protein kinase WNK1 (Homo sapiens), sequence (Q9H4A3 whole entry, looked up): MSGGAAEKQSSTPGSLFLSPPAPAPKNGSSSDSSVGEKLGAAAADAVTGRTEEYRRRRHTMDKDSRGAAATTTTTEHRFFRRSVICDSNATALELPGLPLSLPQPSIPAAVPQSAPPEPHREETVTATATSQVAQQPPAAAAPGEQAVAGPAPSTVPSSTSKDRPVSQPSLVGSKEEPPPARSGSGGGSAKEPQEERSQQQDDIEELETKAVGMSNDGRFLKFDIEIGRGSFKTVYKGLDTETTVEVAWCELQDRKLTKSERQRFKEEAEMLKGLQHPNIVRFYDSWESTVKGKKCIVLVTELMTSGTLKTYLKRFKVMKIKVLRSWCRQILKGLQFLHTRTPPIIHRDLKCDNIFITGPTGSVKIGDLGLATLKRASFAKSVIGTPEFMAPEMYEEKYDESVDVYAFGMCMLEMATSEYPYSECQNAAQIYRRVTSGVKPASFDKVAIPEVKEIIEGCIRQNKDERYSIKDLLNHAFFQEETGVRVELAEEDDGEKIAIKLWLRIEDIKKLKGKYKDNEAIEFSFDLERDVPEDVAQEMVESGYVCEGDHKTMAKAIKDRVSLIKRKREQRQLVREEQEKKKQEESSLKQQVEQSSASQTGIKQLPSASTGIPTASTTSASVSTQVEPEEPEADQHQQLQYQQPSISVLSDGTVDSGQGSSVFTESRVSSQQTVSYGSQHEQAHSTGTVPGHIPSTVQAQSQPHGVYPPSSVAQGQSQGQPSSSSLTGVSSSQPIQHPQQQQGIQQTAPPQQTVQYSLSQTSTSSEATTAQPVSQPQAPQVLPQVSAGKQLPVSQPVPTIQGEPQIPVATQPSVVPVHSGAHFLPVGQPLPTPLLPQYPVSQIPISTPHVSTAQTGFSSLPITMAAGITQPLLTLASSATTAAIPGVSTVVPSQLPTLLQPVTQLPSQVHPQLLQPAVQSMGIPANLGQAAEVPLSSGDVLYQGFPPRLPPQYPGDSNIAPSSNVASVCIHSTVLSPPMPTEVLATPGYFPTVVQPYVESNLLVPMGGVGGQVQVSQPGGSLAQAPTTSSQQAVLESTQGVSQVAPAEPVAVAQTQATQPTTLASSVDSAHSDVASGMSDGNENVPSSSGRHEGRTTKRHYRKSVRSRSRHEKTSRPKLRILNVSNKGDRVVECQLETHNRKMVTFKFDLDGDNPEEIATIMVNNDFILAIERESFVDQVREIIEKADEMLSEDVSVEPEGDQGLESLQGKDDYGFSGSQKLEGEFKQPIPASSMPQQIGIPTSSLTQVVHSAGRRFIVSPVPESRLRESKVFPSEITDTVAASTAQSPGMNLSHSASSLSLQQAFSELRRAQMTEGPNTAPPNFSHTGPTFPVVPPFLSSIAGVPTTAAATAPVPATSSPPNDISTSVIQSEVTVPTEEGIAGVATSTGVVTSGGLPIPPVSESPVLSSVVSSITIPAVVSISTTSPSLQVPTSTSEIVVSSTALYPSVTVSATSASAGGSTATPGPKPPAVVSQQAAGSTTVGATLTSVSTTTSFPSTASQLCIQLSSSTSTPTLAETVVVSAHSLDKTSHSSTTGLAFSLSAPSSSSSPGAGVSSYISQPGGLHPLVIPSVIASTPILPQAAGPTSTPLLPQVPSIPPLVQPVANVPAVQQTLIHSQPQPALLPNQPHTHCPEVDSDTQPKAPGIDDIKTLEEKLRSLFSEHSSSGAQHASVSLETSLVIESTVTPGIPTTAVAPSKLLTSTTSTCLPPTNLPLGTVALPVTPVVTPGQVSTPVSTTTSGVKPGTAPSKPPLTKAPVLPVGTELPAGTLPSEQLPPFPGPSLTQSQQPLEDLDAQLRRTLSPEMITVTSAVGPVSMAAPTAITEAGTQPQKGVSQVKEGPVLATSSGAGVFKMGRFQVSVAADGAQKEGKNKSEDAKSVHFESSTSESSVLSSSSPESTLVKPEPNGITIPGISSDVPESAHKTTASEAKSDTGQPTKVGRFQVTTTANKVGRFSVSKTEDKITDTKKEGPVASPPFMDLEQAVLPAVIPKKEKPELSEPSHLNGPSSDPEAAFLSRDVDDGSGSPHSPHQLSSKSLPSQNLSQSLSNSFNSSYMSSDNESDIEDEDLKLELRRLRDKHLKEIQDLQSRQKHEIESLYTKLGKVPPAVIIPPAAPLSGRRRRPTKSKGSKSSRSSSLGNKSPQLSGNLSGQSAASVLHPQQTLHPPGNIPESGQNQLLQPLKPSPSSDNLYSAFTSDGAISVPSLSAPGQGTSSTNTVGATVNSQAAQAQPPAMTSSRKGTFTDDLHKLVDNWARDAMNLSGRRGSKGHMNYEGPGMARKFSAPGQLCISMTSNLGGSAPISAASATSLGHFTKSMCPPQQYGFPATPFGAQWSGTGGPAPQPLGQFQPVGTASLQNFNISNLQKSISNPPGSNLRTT

[5] = target: T2, Serine/threonine-protein kinase MAK (Homo sapiens) (UniProt P20794); assay: Selectivity interaction (KinomeScan (DiscoverX)) EUB0000666a MAK; conditions: at 10 µM
T2 sequence (whole entry): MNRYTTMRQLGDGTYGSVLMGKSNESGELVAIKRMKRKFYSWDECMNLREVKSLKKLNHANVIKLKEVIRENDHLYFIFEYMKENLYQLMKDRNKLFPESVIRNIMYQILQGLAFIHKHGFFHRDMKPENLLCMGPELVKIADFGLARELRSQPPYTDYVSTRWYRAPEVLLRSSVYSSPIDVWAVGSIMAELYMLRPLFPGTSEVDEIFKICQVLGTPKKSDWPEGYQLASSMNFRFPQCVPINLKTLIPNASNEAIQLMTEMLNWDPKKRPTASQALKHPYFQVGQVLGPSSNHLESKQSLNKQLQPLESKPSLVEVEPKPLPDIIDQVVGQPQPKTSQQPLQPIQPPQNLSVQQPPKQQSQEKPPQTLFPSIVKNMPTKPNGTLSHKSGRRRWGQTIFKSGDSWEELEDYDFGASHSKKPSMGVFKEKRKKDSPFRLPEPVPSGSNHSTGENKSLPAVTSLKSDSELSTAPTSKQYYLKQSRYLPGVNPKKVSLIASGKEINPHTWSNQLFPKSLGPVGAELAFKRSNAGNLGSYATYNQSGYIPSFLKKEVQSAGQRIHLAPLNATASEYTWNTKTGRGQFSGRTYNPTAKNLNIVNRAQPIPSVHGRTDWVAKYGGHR

[6] = target: Vascular endothelial growth factor receptor 2 (Homo sapiens, UniProt P35968); conditions: at 10 µM
Vascular endothelial growth factor receptor 2, sequence (P35968 whole entry): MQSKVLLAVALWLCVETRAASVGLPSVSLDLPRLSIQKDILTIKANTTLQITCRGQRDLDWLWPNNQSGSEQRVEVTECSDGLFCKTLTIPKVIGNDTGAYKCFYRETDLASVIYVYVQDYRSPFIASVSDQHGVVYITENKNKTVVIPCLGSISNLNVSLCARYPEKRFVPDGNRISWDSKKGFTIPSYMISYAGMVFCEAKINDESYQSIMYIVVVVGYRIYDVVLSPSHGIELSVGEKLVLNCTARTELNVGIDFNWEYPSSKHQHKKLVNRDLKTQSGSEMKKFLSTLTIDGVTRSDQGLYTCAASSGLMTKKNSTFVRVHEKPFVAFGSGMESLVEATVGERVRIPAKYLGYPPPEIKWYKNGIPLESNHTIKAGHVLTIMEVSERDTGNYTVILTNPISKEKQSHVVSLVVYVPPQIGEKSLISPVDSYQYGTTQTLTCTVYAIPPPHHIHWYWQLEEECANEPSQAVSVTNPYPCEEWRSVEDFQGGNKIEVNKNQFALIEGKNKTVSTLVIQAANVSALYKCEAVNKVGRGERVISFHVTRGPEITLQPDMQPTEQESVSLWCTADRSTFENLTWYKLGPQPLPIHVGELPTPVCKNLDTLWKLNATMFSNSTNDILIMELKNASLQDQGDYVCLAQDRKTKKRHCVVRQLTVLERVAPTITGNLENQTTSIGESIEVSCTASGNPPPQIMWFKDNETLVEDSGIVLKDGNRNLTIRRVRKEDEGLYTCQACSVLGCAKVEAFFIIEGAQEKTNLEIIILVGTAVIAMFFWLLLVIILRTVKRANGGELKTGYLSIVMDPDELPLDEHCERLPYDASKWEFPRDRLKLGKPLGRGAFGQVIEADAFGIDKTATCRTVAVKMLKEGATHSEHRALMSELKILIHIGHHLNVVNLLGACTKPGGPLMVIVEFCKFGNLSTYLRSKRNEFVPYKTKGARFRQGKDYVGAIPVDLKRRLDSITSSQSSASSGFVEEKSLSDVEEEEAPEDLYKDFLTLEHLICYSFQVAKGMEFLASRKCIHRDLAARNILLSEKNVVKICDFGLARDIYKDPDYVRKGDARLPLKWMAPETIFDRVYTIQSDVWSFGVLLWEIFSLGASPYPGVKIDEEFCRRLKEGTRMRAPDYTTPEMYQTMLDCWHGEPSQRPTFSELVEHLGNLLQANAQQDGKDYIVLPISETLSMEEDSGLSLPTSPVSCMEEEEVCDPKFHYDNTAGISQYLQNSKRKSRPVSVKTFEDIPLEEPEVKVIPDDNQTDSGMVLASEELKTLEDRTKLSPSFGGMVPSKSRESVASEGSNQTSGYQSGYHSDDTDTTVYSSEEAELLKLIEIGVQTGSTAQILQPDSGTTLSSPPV

[7] = target: Mitogen-activated protein kinase kinase kinase kinase 4 (Homo sapiens, UniProt O95819); conditions: at 10 µM
[8] = target: T3, Serine/threonine-protein kinase Sgk2 (Homo sapiens) (UniProt Q9HBY8); assay: Selectivity interaction (Kinase panel (Z-LYTE Assay)) EUB0001632a SGK2; conditions: at 10 µM
T3 sequence (whole entry): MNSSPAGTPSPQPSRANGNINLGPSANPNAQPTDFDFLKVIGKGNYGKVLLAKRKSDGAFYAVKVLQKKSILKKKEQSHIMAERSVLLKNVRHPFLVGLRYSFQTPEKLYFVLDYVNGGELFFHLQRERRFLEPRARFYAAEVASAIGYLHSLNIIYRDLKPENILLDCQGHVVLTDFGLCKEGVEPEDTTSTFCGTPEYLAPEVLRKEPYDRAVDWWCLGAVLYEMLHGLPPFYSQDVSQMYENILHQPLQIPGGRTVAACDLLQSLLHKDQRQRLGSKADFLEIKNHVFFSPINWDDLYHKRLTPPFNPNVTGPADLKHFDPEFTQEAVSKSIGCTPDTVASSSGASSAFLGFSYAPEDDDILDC

[9] = target: Receptor tyrosine-protein kinase erbB-4 (Homo sapiens, UniProt Q15303); assay: Selectivity interaction (KinomeScan (DiscoverX)) EUB0001049a ERBB4; conditions: at 1 µM
Receptor tyrosine-protein kinase erbB-4, sequence (Q15303 whole entry): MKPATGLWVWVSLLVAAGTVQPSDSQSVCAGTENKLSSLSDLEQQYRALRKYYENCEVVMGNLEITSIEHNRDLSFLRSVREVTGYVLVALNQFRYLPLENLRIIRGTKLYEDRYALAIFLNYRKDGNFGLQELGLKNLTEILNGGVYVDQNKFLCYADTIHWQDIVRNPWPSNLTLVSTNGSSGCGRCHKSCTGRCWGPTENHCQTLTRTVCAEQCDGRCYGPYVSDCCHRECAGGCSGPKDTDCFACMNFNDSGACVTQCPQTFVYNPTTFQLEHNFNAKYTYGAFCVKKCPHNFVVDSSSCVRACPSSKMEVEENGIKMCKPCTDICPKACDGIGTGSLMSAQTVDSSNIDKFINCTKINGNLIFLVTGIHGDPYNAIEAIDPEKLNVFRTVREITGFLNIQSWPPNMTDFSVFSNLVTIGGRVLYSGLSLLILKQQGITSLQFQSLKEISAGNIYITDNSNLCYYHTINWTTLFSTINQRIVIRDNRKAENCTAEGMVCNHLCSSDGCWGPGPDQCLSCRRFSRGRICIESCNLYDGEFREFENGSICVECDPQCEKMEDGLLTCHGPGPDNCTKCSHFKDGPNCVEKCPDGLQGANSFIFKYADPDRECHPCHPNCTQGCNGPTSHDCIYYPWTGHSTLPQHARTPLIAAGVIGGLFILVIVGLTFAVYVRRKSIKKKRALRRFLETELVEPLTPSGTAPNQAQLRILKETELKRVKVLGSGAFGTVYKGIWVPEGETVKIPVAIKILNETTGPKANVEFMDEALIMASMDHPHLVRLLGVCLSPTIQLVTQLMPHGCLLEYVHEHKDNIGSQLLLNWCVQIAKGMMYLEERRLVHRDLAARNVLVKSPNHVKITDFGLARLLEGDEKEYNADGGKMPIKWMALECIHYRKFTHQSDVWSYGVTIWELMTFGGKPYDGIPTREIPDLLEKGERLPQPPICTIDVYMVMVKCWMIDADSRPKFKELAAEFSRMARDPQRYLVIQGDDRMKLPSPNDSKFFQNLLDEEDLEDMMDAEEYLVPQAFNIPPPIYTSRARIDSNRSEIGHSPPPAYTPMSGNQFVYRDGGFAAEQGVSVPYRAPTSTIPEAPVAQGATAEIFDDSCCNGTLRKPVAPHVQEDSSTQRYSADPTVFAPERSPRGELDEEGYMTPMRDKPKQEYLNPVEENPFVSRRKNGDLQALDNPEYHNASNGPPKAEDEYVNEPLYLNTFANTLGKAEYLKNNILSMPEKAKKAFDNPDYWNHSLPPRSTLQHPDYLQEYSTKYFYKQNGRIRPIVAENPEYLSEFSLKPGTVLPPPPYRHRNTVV

[10] = target: T4, Phosphatidylinositol 5-phosphate 4-kinase type-2 beta (Homo sapiens) (UniProt P78356); assay: Selectivity interaction (KinomeScan (DiscoverX)) EUB0000695a PIP4K2B; conditions: at 100 nM
T4 sequence (whole entry): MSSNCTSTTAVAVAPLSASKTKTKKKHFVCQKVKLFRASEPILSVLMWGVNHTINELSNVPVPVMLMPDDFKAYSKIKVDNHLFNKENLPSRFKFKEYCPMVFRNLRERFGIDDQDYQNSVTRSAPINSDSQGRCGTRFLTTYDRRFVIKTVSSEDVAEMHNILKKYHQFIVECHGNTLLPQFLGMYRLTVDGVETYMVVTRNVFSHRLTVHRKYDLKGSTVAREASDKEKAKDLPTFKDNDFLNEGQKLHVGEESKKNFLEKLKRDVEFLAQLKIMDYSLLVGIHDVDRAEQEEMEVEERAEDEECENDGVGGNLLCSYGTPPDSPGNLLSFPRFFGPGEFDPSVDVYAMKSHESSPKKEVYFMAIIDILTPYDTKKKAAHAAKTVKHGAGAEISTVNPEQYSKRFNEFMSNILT

[11] = target: Mitogen-activated protein kinase 8 (Homo sapiens, UniProt P45983); assay: Selectivity interaction (Kinase panel (literature)) EUB0001199aCl MAPK8; conditions: at 1 µM
[12] = target: Calcium/calmodulin-dependent protein kinase type II subunit gamma (Homo sapiens) (UniProt Q13555); assay: Selectivity interaction (ActivX KiNativ screen (ex vivo kinase selectivity in human PBMCs)) EUB0001619a CAMK2G; format: cell-based; conditions: PBMC, at 1 µM

For CCN(CC)CCCCNc1ncc2cc(-c3cc(OC)cc(OC)c3)c(NC(=O)NC(C)(C)C)nc2n1, the % of control [1] was 100%.
Compound Nc1cnc(N2CCc3cc(S(=O)(=O)Nc4c(F)cc(Cl)cc4F)cc(N4CCCC4=O)c32)nc1 [TP-020n] has a % of control [2] of 100% and a % of control [3] of 87%.
C=CC(=O)Nc1ccc(C(=O)Nc2[nH]nc3c2CN(C(=O)N[C@H](CN(C)C)c2ccccc2)C3(C)C)cc1 gave a % of engagement ([4]; Selectivity number of off-targets 0.0, Selectivity number of targets 233.0, Source Knowledge https://www.sciencedirect.com/science/article/pii/S2451945619300674?via%3Dihub) of -16.3% and a % of engagement [4] of -12.9%.
In the case of O=C(NOC[C@H](O)CO)c1ccc(F)c(F)c1Nc1ccc(I)cc1F, the % of control [5] was 100%.
With Cc1cc([C@@H](C)Nc2ccccc2C(=O)O)c2nc(N3CCOCC3)cc(=O)n2c1 [AZD-6482] the % of control [6] was 100% and the % of control [7] was 97%.
With Cn1cc(-n2cnc3c(NCc4nc5cc(Cl)c(Cl)cc5[nH]4)nc(N4CCOCC4)nc32)cn1 the % of control [8] was 8.85%.
Compound COc1cc(Nc2nc(C)cc(-c3cnn4nc(OC)ccc34)n2)cc(C(F)(F)F)c1 has a % of control [9] of 90%.
Compound Cc1cc(F)c(C(=O)Nc2cccc(-c3nncn3C(C)C)n2)cc1-n1cnc(C2CC2)c1 has a % of control [10] of 92%.
CN1Cc2nccc(-c3cn(C)nc3-c3ccc(F)cc3)c2C1=O was tested, and the % of inhibition [11] was -2%.
With N#Cc1cccc(-c2c[nH]c3ncnc(N4CCOCC4)c23)c1 the % of inhibition [12] was 3%.
